Our source for the GI50 and TGI values is PubChem BioAssay (NCI).

Structures are written as SMILES.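 Exposure lasted 48 hours, with cells grown in 96-well plates and compounds tested at five concentrations. Abbreviation: GI50, concentration required for 50% inhibition of growth. At the TGI there is no net growth.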

One assay has as its system 786-0 renal. As to the kind of experiment: NCI anticancer screen, dose series, 48 h.
In the case of `COc1ccc(-c2c3c(N)nc(-c4ccncc4)nc3nc3c2c(C)nn3-c2ccccc2)cc1`, the GI50 is 7.12 µM and the TGI is over 100 µM.

In turn, `C#CCOCn1cnc2c(Cl)ncnc21` had a TGI of over 100 µM.

For `Oc1cccc2ccc(N/N=C/c3cc(CN4CCCCC4)c(O)c4ncccc34)nc12`, the GI50 is 0.0826 µM and the TGI was 1.7 µM.

In the case of `COc1cccc(-n2ncc3c(N/N=C/c4ccc(C(=O)NCCN(C)C)cc4)ncnc32)c1`, the GI50 is 3.58 µM and the TGI is 8.14 µM.

In turn, `O=c1/c(=C/c2ccccc2F)sc2nc3ccccc3n12` returned a TGI of over 100 µM.

As to `CC1(C)CC(=O)c2c(C(F)(F)F)nn(-c3ccc(C(N)=O)c(NC4CCC(OC(=O)CN)CC4)c3)c2C1` (centres undefined), the GI50 was 16.2 µM and the TGI was over 100 µM.

As to `O=C(NCCCCCCNC(=O)n1cc(F)c(=O)[nH]c1=O)NCCCOCCOCCOCCOCCOCCOCCOCCOCCOCCOCCOCCOCCOCCOCCOCCOCCOCCOCCOCCOCCOCCCNC(=O)C(O)C(O)C(O)C(O)CO` (centres undefined), the TGI was over 100 µM.

Consider `COc1cc(C2CC(c3ccc4c(c3)OCO4)=NN2C=O)cc(OC)c1OC` (centres undefined), for which the GI50 is 5.26 µM and the TGI was over 100 µM.

As for `CCCC(=O)OC1C(C(O)CO)OC2OC(C)(C)OC21` (centres undefined), the TGI was over 100 µM.

Regarding `COC(=O)[C@H](C[C@H](Cc1ccccc1)NC(=O)c1csc([C@@H](C[C@H](C(C)C)N(C)C(=O)[C@@H](NC(=O)[C@H]2CCCCN2C)C(C)C)OC(C)=O)n1)NC(=O)OCc1ccccc1`, the GI50 is 0.00159 µM and the TGI is over 3.67 µM.

For `COC(C(=O)[O][Ge]([CH3])([CH3])[CH3])c1ccccc1` (centres undefined), the GI50 is over 100 µM and the TGI is over 100 µM.

In turn, `CC(=O)OCC1OC(OC2C(CSC3OC(COC(C)=O)C(OC(C)=O)C(OC(C)=O)C3OC(C)=O)OC(OC(C)=O)C(OC(C)=O)C2OC(C)=O)C(OC(C)=O)C(OC(C)=O)C1OC(C)=O` (centres undefined) yielded a TGI of over 100 µM.

Take `NNC(=O)/C(=C/c1ccc(Cl)cc1Cl)NC(=O)c1ccccc1`: the TGI was over 100 µM.

For `Nc1ccccc1C#C/C=C\C#Cc1cccs1`, the GI50 is 13.5 µM and the TGI amounted to 35.1 µM.

`COc1ccc2c(c1)cn1c3ccc(O)cc3nc(N)c21`: the GI50 was 0.947 µM and the TGI worked out at 6.86 µM.

Regarding `O=C(O)/C=C\C(=O)N1C/C(=C\c2ccccc2Cl)C(=O)/C(=C/c2ccccc2Cl)C1`, the GI50 is 2.18 µM and the TGI was determined as 4.06 µM.

Regarding `CC#C[C@]1(O)CC[C@H]2[C@@H]3CCC4=CC(=O)CCC4=C3[C@@H](c3ccc4c(c3)OCO4)C[C@@]21C`, the GI50 was 35.8 µM and the TGI was 324 µM.

Another assay has as its system HCC-2998 colon. Put plainly: NCI anticancer screen, dose series, 48 h.
As to `COc1ccc(-c2c3c(N)nc(-c4ccncc4)nc3nc3c2c(C)nn3-c2ccccc2)cc1`, the GI50 is over 100 µM and the TGI is over 100 µM.

`C#CCOCn1cnc2c(Cl)ncnc21` showed a TGI of over 100 µM.

On to `Oc1cccc2ccc(N/N=C/c3cc(CN4CCCCC4)c(O)c4ncccc34)nc12`, for which the GI50 was 0.0499 µM and the TGI worked out at 1.76 µM.

On to `COc1cccc(-n2ncc3c(N/N=C/c4ccc(C(=O)NCCN(C)C)cc4)ncnc32)c1`, for which the GI50 is 4.66 µM and the TGI is 8.58 µM.

In turn, `O=c1/c(=C/c2ccccc2F)sc2nc3ccccc3n12` displayed a TGI of over 100 µM.

`CC1(C)CC(=O)c2c(C(F)(F)F)nn(-c3ccc(C(N)=O)c(NC4CCC(OC(=O)CN)CC4)c3)c2C1` (centres undefined): the GI50 was 0.195 µM and the TGI stood at 13.2 µM.

`O=C(NCCCCCCNC(=O)n1cc(F)c(=O)[nH]c1=O)NCCCOCCOCCOCCOCCOCCOCCOCCOCCOCCOCCOCCOCCOCCOCCOCCOCCOCCOCCOCCOCCOCCCNC(=O)C(O)C(O)C(O)C(O)CO` (centres undefined) returned a TGI of over 100 µM.

For the molecule `COc1cc(C2CC(c3ccc4c(c3)OCO4)=NN2C=O)cc(OC)c1OC` (centres undefined), the GI50 is 4.44 µM and the TGI was over 100 µM.

`CCCC(=O)OC1C(C(O)CO)OC2OC(C)(C)OC21` (centres undefined) displayed a TGI of over 100 µM.

As to `COC(=O)[C@H](C[C@H](Cc1ccccc1)NC(=O)c1csc([C@@H](C[C@H](C(C)C)N(C)C(=O)[C@@H](NC(=O)[C@H]2CCCCN2C)C(C)C)OC(C)=O)n1)NC(=O)OCc1ccccc1`, the GI50 was under 0.0009 µM and the TGI was over 5.64 µM.

On to `COC(C(=O)[O][Ge]([CH3])([CH3])[CH3])c1ccccc1` (centres undefined), for which the GI50 is over 100 µM and the TGI was over 100 µM.

Regarding `CC(=O)OCC1OC(OC2C(CSC3OC(COC(C)=O)C(OC(C)=O)C(OC(C)=O)C3OC(C)=O)OC(OC(C)=O)C(OC(C)=O)C2OC(C)=O)C(OC(C)=O)C(OC(C)=O)C1OC(C)=O` (centres undefined), the TGI was over 100 µM.

`NNC(=O)/C(=C/c1ccc(Cl)cc1Cl)NC(=O)c1ccccc1` came in with a TGI of over 100 µM.

For `Nc1ccccc1C#C/C=C\C#Cc1cccs1`, the GI50 was 4.17 µM and the TGI was found to be 19.3 µM.

For `COc1ccc2c(c1)cn1c3ccc(O)cc3nc(N)c21`, the GI50 was 0.626 µM and the TGI worked out at 5.24 µM.

As for `O=C(O)/C=C\C(=O)N1C/C(=C\c2ccccc2Cl)C(=O)/C(=C/c2ccccc2Cl)C1`, the GI50 is 2.06 µM and the TGI came out at 3.87 µM.

On to `CC#C[C@]1(O)CC[C@H]2[C@@H]3CCC4=CC(=O)CCC4=C3[C@@H](c3ccc4c(c3)OCO4)C[C@@]21C`, for which the GI50 is 174 µM and the TGI was 572 µM.

The next assay concerns HCT-116 colon. Put plainly: NCI anticancer screen, dose series, 48 h.
As to `COc1ccc(-c2c3c(N)nc(-c4ccncc4)nc3nc3c2c(C)nn3-c2ccccc2)cc1`, the GI50 was 2460 nM and the TGI came out at 13.6 µM.

Turning to `C#CCOCn1cnc2c(Cl)ncnc21`, the TGI was over 100 µM.

As for `Oc1cccc2ccc(N/N=C/c3cc(CN4CCCCC4)c(O)c4ncccc34)nc12`, the GI50 was 42.6 nM and the TGI was determined as 1.71 µM.

Consider `COc1cccc(-n2ncc3c(N/N=C/c4ccc(C(=O)NCCN(C)C)cc4)ncnc32)c1`, for which the GI50 is 2760 nM and the TGI was determined as 6.21 µM.

`O=c1/c(=C/c2ccccc2F)sc2nc3ccccc3n12` had a TGI of over 100 µM.

`CC1(C)CC(=O)c2c(C(F)(F)F)nn(-c3ccc(C(N)=O)c(NC4CCC(OC(=O)CN)CC4)c3)c2C1` (centres undefined): the GI50 is 40.5 nM and the TGI was 31.6 µM.

On to `O=C(NCCCCCCNC(=O)n1cc(F)c(=O)[nH]c1=O)NCCCOCCOCCOCCOCCOCCOCCOCCOCCOCCOCCOCCOCCOCCOCCOCCOCCOCCOCCOCCOCCOCCCNC(=O)C(O)C(O)C(O)C(O)CO` (centres undefined), for which the TGI was over 100 µM.

As for `COc1cc(C2CC(c3ccc4c(c3)OCO4)=NN2C=O)cc(OC)c1OC` (centres undefined), the GI50 was 1520 nM and the TGI is over 100 µM.
